Test results as given in the supplement of paper PMC10307832.

Tests used:
Assay in all cases: relative viability (nuclei count vs DMSO), 5 days (fraction); higher = more cells survive
Dovitinib + Phenformin = compound: CN1CCN(c2ccc3nc(-c4c(N)c5c(F)cccc5[nH]c4=O)[nH]c3c2)CC1 [Dovitinib] + N=C(N)NC(=N)NCCc1ccccc1 [Phenformin] (partner 250 µM)
How it was run: (§1)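 Values are medians from duplicate plates. Each reflects relative viability, defined as the nuclei count of treated wells over that of vehicle wells. Lung cancer cell lines in 1536-well plates were pin-tool dosed one day after seeding with one drug alone or with a fixed anchor-drug dose plus five library-drug doses (not always all listed) in √10 steps, then fixed, stained and imaged at 4× after 5 days.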

Dovitinib + Pemetrexed = compound: CN1CCN(c2ccc3nc(-c4c(N)c5c(F)cccc5[nH]c4=O)[nH]c3c2)CC1 [Dovitinib] + Nc1nc2[nH]cc(CCc3ccc(C(=O)N[C@@H](CCC(=O)O)C(=O)O)cc3)c2c(=O)[nH]1 [Pemetrexed] (partner 0.2 µM)
How it was run: as §1

Dovitinib + Dasatinib = compound: CN1CCN(c2ccc3nc(-c4c(N)c5c(F)cccc5[nH]c4=O)[nH]c3c2)CC1 [Dovitinib] + Cc1nc(Nc2ncc(C(=O)Nc3c(C)cccc3Cl)s2)cc(N2CCN(CCO)CC2)n1 [Dasatinib] (partner 0.075 µM)
How it was run: as §1

Dovitinib + Tozasertib = compound: CN1CCN(c2ccc3nc(-c4c(N)c5c(F)cccc5[nH]c4=O)[nH]c3c2)CC1 [Dovitinib] + Cc1cc(Nc2cc(N3CCN(C)CC3)nc(Sc3ccc(NC(=O)C4CC4)cc3)n2)n[nH]1 [Tozasertib] (partner 0.1 µM)
How it was run: as §1

Dovitinib + Vorinostat = compound: CN1CCN(c2ccc3nc(-c4c(N)c5c(F)cccc5[nH]c4=O)[nH]c3c2)CC1 [Dovitinib] + O=C(CCCCCCC(=O)Nc1ccccc1)NO [Vorinostat] (partner 1 µM)
How it was run: as §1

Dovitinib + Olaparib = compound: CN1CCN(c2ccc3nc(-c4c(N)c5c(F)cccc5[nH]c4=O)[nH]c3c2)CC1 [Dovitinib] + O=C(c1cc(Cc2n[nH]c(=O)c3ccccc23)ccc1F)N1CCN(C(=O)C2CC2)CC1 [Olaparib] (partner 8 µM)
How it was run: as §1

Dovitinib + Foretinib = compound: CN1CCN(c2ccc3nc(-c4c(N)c5c(F)cccc5[nH]c4=O)[nH]c3c2)CC1 [Dovitinib] + COc1cc2c(Oc3ccc(NC(=O)C4(C(=O)Nc5ccc(F)cc5)CC4)cc3F)ccnc2cc1OCCCN1CCOCC1 [Foretinib] (partner 0.25 µM)
How it was run: as §1

Dovitinib + Palbociclib = compound: CN1CCN(c2ccc3nc(-c4c(N)c5c(F)cccc5[nH]c4=O)[nH]c3c2)CC1 [Dovitinib] + CC(=O)c1c(C)c2cnc(Nc3ccc(N4CCNCC4)cn3)nc2n(C2CCCC2)c1=O [Palbociclib] (partner 0.5 µM)
How it was run: as §1

Dovitinib + OSI-027 = compound: CN1CCN(c2ccc3nc(-c4c(N)c5c(F)cccc5[nH]c4=O)[nH]c3c2)CC1 [Dovitinib] + COc1cccc2cc(-c3nc([C@H]4CC[C@H](C(=O)O)CC4)n4ncnc(N)c34)[nH]c12 [OSI-027] (partner 0.5 µM)
How it was run: as §1

Dovitinib + Luminespib = compound: CN1CCN(c2ccc3nc(-c4c(N)c5c(F)cccc5[nH]c4=O)[nH]c3c2)CC1 [Dovitinib] + CCNC(=O)c1noc(-c2cc(C(C)C)c(O)cc2O)c1-c1ccc(CN2CCOCC2)cc1 [Luminespib] (partner 0.01 µM)
How it was run: as §1

Dovitinib + AZD7762 = compound: CN1CCN(c2ccc3nc(-c4c(N)c5c(F)cccc5[nH]c4=O)[nH]c3c2)CC1 [Dovitinib] + NC(=O)Nc1cc(-c2cccc(F)c2)sc1C(=O)N[C@H]1CCCNC1 [AZD7762] (partner 0.2 µM)
How it was run: as §1

Dovitinib + Trametinib = compound: CN1CCN(c2ccc3nc(-c4c(N)c5c(F)cccc5[nH]c4=O)[nH]c3c2)CC1 [Dovitinib] + CC(=O)Nc1cccc(-n2c(=O)n(C3CC3)c(=O)c3c(Nc4ccc(I)cc4F)n(C)c(=O)c(C)c32)c1 [Trametinib] (partner 0.02 µM)
How it was run: as §1

Dovitinib + Decitabine = compound: CN1CCN(c2ccc3nc(-c4c(N)c5c(F)cccc5[nH]c4=O)[nH]c3c2)CC1 [Dovitinib] + Nc1ncn([C@H]2C[C@H](O)[C@@H](CO)O2)c(=O)n1 [Decitabine] (partner 2 µM)
How it was run: as §1

Dovitinib = compound: CN1CCN(c2ccc3nc(-c4c(N)c5c(F)cccc5[nH]c4=O)[nH]c3c2)CC1 [Dovitinib]
How it was run: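 Acceptance criteria were a control CV below 25% and at least one doubling per plate. Lung cancer cell lines in 1536-well plates got five library-drug doses (not always all listed) √10 apart by pinning and were left 5 days with no medium change. Viability divides treated-well nuclei by vehicle-well nuclei and is the median across plates. Nuclei were counted by MetaXpress from 4× Hoechst images.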

SW 900
relative viability (Dovitinib + Phenformin; first compound 0.02 µM): 0.83
relative viability (Dovitinib + Phenformin; first compound 0.06325 µM): 0.834
relative viability (Dovitinib + Phenformin; first compound 0.2 µM): 0.478
relative viability (Dovitinib + Phenformin; first compound 0.6325 µM): 0.618
relative viability (Dovitinib + Phenformin; first compound 2 µM): 0.554
relative viability (Dovitinib + Pemetrexed; first compound 0.02 µM): 0.473
relative viability (Dovitinib + Pemetrexed; first compound 0.06325 µM): 0.477
relative viability (Dovitinib + Pemetrexed; first compound 0.2 µM): 0.476
relative viability (Dovitinib + Pemetrexed; first compound 0.6325 µM): 0.534
relative viability (Dovitinib + Pemetrexed; first compound 2 µM): 0.491
relative viability (Dovitinib + Dasatinib; first compound 0.02 µM): 0.741
relative viability (Dovitinib + Dasatinib; first compound 0.06325 µM): 0.586
relative viability (Dovitinib + Dasatinib; first compound 0.2 µM): 0.548
relative viability (Dovitinib + Dasatinib; first compound 0.6325 µM): 0.546
relative viability (Dovitinib + Dasatinib; first compound 2 µM): 0.61
relative viability (Dovitinib + Tozasertib; first compound 0.02 µM): 0.459
relative viability (Dovitinib + Tozasertib; first compound 0.06325 µM): 0.537
relative viability (Dovitinib + Tozasertib; first compound 0.2 µM): 0.533
relative viability (Dovitinib + Tozasertib; first compound 0.6325 µM): 0.582
relative viability (Dovitinib + Tozasertib; first compound 2 µM): 0.689
relative viability (Dovitinib + Vorinostat; first compound 0.02 µM): 0.699
relative viability (Dovitinib + Vorinostat; first compound 0.06325 µM): 0.402
relative viability (Dovitinib + Vorinostat; first compound 0.2 µM): 0.518
relative viability (Dovitinib + Vorinostat; first compound 0.6325 µM): 0.616
relative viability (Dovitinib + Vorinostat; first compound 2 µM): 0.493
relative viability (Dovitinib + Olaparib; first compound 0.02 µM): 0.796
relative viability (Dovitinib + Olaparib; first compound 0.06325 µM): 0.809
relative viability (Dovitinib + Olaparib; first compound 0.2 µM): 0.847
relative viability (Dovitinib + Olaparib; first compound 0.6325 µM): 0.808
relative viability (Dovitinib + Olaparib; first compound 2 µM): 0.851
relative viability (Dovitinib + Foretinib; first compound 0.02 µM): 0.85
relative viability (Dovitinib + Foretinib; first compound 0.06325 µM): 0.841
relative viability (Dovitinib + Foretinib; first compound 0.2 µM): 0.919
relative viability (Dovitinib + Foretinib; first compound 0.6325 µM): 1
relative viability (Dovitinib + Foretinib; first compound 2 µM): 0.792
relative viability (Dovitinib + Palbociclib; first compound 0.02 µM): 0.588
relative viability (Dovitinib + Palbociclib; first compound 0.06325 µM): 0.632
relative viability (Dovitinib + Palbociclib; first compound 0.2 µM): 0.615
relative viability (Dovitinib + Palbociclib; first compound 0.6325 µM): 0.611
relative viability (Dovitinib + Palbociclib; first compound 2 µM): 0.571
relative viability (Dovitinib + OSI-027; first compound 0.02 µM): 0.465
relative viability (Dovitinib + OSI-027; first compound 0.06325 µM): 0.556
relative viability (Dovitinib + OSI-027; first compound 0.2 µM): 0.616
relative viability (Dovitinib + OSI-027; first compound 0.6325 µM): 0.54
relative viability (Dovitinib + OSI-027; first compound 2 µM): 0.62
relative viability (Dovitinib + Luminespib; first compound 0.02 µM): 0.181
relative viability (Dovitinib + Luminespib; first compound 0.06325 µM): 0.173
relative viability (Dovitinib + Luminespib; first compound 0.2 µM): 0.176
relative viability (Dovitinib + Luminespib; first compound 0.6325 µM): 0.164
relative viability (Dovitinib + Luminespib; first compound 2 µM): 0.149
relative viability (Dovitinib + AZD7762; first compound 0.02 µM): 0.591
relative viability (Dovitinib + AZD7762; first compound 0.06325 µM): 0.62
relative viability (Dovitinib + AZD7762; first compound 0.2 µM): 0.505
relative viability (Dovitinib + AZD7762; first compound 0.6325 µM): 0.681
relative viability (Dovitinib + AZD7762; first compound 2 µM): 0.615
relative viability (Dovitinib + Trametinib; first compound 0.02 µM): 0.811
relative viability (Dovitinib + Trametinib; first compound 0.06325 µM): 0.763
relative viability (Dovitinib + Trametinib; first compound 0.2 µM): 1.06
relative viability (Dovitinib + Trametinib; first compound 0.6325 µM): 0.771
relative viability (Dovitinib + Trametinib; first compound 2 µM): 1.08
relative viability (Dovitinib + Decitabine; first compound 0.02 µM): 0.395
relative viability (Dovitinib + Decitabine; first compound 0.06325 µM): 0.456
relative viability (Dovitinib + Decitabine; first compound 0.2 µM): 0.444
relative viability (Dovitinib + Decitabine; first compound 0.6325 µM): 0.377
relative viability (Dovitinib + Decitabine; first compound 2 µM): 0.444
relative viability (Dovitinib; 0.02 µM): 1.11
relative viability (Dovitinib; 0.06325 µM): 0.853
relative viability (Dovitinib; 0.2 µM): 1.11
relative viability (Dovitinib; 0.6325 µM): 1.04
relative viability (Dovitinib; 2 µM): 0.952
